In publication PMC5607274, “An iterative compound screening contest method for identifying target protein inhibitors using the tyrosine-protein kinase Yes” (Scientific Reports, 2017):

Molecular target: T1, human recombinant Yes [a.a. 2–543 (end)] (Homo sapiens, UniProt P07947)
T1 construct: human recombinant Yes [a.a; 2–543 (end)]; purchased BPS Bioscience 40488
Experiment: ADP-Glo kinase assay, inhibition rates of Yes phosphorylation activity (first and second screening)
Type: biochemical
Conditions: first screening; mean of n = 4 wells; 10 μmol L−1 compound
Summary of the method: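 Hits from a first pass were rescreened after re-dissolution from fresh powder. The first pass reported the mean inhibition rate of quadruplicate wells per compound. Activity was that of recombinant human Yes [a.a. 2–543] kinase, read out with the ADP-Glo ADP-detection method.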

T1 sequence (P07947 2-543): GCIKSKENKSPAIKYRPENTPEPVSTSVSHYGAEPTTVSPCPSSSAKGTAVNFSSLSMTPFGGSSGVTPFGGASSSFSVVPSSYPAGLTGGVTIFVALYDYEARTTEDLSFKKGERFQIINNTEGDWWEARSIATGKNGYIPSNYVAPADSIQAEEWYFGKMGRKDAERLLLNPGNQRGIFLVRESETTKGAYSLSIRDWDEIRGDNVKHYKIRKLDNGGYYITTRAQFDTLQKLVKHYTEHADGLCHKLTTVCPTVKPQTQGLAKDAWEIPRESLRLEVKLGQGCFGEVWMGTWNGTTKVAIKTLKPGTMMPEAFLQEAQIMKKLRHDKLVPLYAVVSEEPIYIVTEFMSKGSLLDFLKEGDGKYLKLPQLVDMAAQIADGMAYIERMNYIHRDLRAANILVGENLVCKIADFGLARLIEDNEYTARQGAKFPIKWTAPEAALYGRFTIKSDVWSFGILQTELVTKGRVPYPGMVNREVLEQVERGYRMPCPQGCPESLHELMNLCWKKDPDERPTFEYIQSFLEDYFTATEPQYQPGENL

| SMILES | First screening IR (inhibition rate) |
| --- | --- |
| CCN1C/C(=C/c2ccc(F)cc2)c2nc3ccccc3c(C(=O)O)c2C1 [Compound Z46146538] | 5% |
| CCOc1ccc(NC(=O)c2ccccc2NC(=O)CN2CCOCC2)cc1 [Compound Z46179735] | 14% |
| O=C(CN1CCN(S(=O)(=O)c2cccc(Cl)c2Cl)CC1)NC1CCCCCC1 [Compound Z46278335] | -12% |
| CN(CCS(=O)(=O)c1cc(Cl)ccc1Cl)Cc1nc2ccccc2c(=O)[nH]1 [Compound Z46302626] | -9% |
| CN(CC(=O)N1CCc2ccccc2C1)Cc1nc2ccccc2c(=O)[nH]1 [Compound Z46302902] | -12% |
| CCOC(=O)c1c(-c2ccc(OC)cc2)csc1NC(=O)CN1CCN(c2cccc(OC)c2)CC1 [Compound Z46356995] | 9% |
| CCOC(=O)c1c(-c2ccc(OC)c(OC)c2)csc1NC(=O)CN1CCN(c2cccc(OC)c2)CC1 [Compound Z46357060] | 5% |
| CCN(C(=O)CN(C)CC(=O)Nc1ccc(Cl)cc1)c1cccc2ccccc12 [Compound Z46378572] | 33% |
| CCn1c(CN2CCN(C(=O)c3ccccc3)CC2)nc2cc(S(=O)(=O)N3CCOCC3)ccc21 [Compound Z46404320] | 1% |
| CCOC(=O)C1=C(CN2CCN(Cc3nc4sc5c(c4c(=O)[nH]3)CCCC5)CC2)NC(=O)NC1CC (stereo not drawn) [Compound Z46405175] | 0% |
| CCN(C(=O)CN(C)CC(=O)Nc1c(C)cc(C)cc1C)c1cccc2ccccc12 [Compound Z46455760] | -4% |
| Cc1sc2nc(-c3cccc(NC(=O)CN4CCN(CC5CCCO5)CC4)c3)[nH]c(=O)c2c1C (stereo not drawn) [Compound Z46510296] | 2% |
| Cc1cccc(/C=C/c2cc(C(=O)O)c3ccccc3n2)c1 [Compound Z46532935] | 46% |
| COc1ccc2c(c1)CC/C(=C\c1ccc(Cl)c(Cl)c1)C2=O [Compound Z46584361] | 30% |
| COc1ccc2c(c1)CC/C(=C\c1cccc(C)c1)C2=O [Compound Z46584406] | -6% |
| O=C(/C=C/c1cc2ccccc2nc1N1CCOCC1)c1ccc(S(=O)(=O)N2CCCC2)cc1 [Compound Z46590414] | 1% |
| CN(C)c1ccc(/C=c2/s/c(=C/C(=O)C(C)(C)C)[nH]c2=O)cc1 [Compound Z46615661] | -8% |
| Cc1ccc(-n2c(=O)/c(=C/c3ccc4c(c3)OCO4)s/c2=C(/C#N)C(=O)NCCN2CCOCC2)c(C)c1 [Compound Z47840324] | -11% |
| Cc1ccc(C)c(-n2c(=O)/c(=C/c3ccc(OC(F)F)cc3)s/c2=C(/C#N)C(=O)NCCN2CCOCC2)c1 [Compound Z47852683] | 15% |
| Cc1ccc(NC(=O)CC2SC(=Nc3ccccc3C)N(CCCN3CCOCC3)C2=O)c([N+](=O)[O-])c1 (stereo not drawn) [Compound Z48462494] | -3% |
| CCOC(=O)/C=c1\s/c(=C/c2ccc(N3CCCCC3)c([N+](=O)[O-])c2)c(=O)n1CC(=O)N1CCC(C)CC1 [Compound Z48712692] | 25% |
| CCOC(=O)/C=c1\s/c(=C/c2ccc(N3CCOCC3)c([N+](=O)[O-])c2)c(=O)n1CC(=O)N1CCC(C)CC1 [Compound Z48712790] | -4% |

| SMILES | First screening IR (inhibition rate) |
| --- | --- |
| N#C/C(=C(/O)CN1CCN(S(=O)(=O)c2ccccc2C#N)CC1)c1nc2ccccc2[nH]1 [Compound Z48805202] | -4% |
| NC(=O)c1cc(-c2csc(NCc3ccccc3)n2)ccc1O [Compound Z48850058] | 39% |
| COc1ccc(Nc2nc(-c3ccc(Cl)s3)cs2)cc1 [Compound Z48857068] | 4% |
| COc1cccc(-c2cc(-c3ccccc3)c3cc(Cl)ccc3n2)c1.Cl [Compound Z48950797] | 1% |
| Cc1ccc(-c2cc(-c3ccccc3)c3cc(Cl)ccc3n2)cc1.Cl [Compound Z48950811] | 59% |
| Cc1c(-c2ccccc2)nc2ccc(Cl)cc2c1-c1ccccc1.Cl [Compound Z48950813] | 20% |
| Cl.Oc1ccc(-c2cc(-c3ccccc3)c3cc(Cl)ccc3n2)cc1 [Compound Z48950817] | 51% |
| Cc1c(-c2ccc(O)cc2)nc2ccc(Cl)cc2c1-c1ccccc1.Cl [Compound Z48950829] | 33% |
| Cl.Fc1ccc(-c2nc3ccc(Cl)cc3c(-c3ccccc3)c2CCCl)cc1 [Compound Z48950878] | 10% |
| Cl.Fc1ccc(-c2cc(-c3ccccc3)c3ccccc3n2)cc1 [Compound Z48951014] | 18% |
| Cc1ccc(-c2cc(-c3ccccc3)c3ccccc3n2)cc1.Cl [Compound Z48951039] | 11% |
| Cl.Oc1ccc(-c2cc(-c3ccccc3)c3ccccc3n2)cc1 [Compound Z48951045] | 24% |
| Cl.Clc1ccc(-c2cc(-c3ccccc3)c3ccccc3n2)cc1 [Compound Z48951047] | 8% |
| Cc1c(-c2ccc(OC(F)F)cc2)nc2ccccc2c1-c1ccccc1.Cl [Compound Z48951073] | 4% |
| Cc1ccc(O)c(-c2cc(-c3ccccc3)c3ccccc3n2)c1.Cl [Compound Z48951082] | 1% |
| Cl.Oc1ccc(-c2cc(-c3ccccc3Cl)c3cc(Cl)ccc3n2)cc1 [Compound Z48951729] | 10% |
| Cl.Clc1ccc(-c2cc(-c3ccccc3Cl)c3cc(Cl)ccc3n2)cc1 [Compound Z48951731] | -3% |
| Cl.N#Cc1ccc(-c2cc(-c3ccccc3Cl)c3cc(Cl)ccc3n2)cc1 [Compound Z48951737] | 1% |
| Cc1ccc(-c2c3c(nc4sc5c(c24)CCC5)CCC(C(C)(C)C)C3)cc1.Cl (stereo not drawn) [Compound Z48952614] | 4% |
| Cl.Fc1ccccc1-c1c2c(nc3ccc(Cl)cc13)-c1ccccc1OC2 [Compound Z48955788] | -15% |
| Cl.Fc1ccccc1-c1cc(-c2ccccc2F)c2cc(Cl)ccc2n1 [Compound Z48955797] | 11% |
| Cl.Fc1ccccc1-c1c2c(nc3ccc(Cl)cc13)-c1ccccc1CC2 [Compound Z48955803] | 15% |

The next lines start with the values.

| First screening IR (inhibition rate) | SMILES |
| --- | --- |
| 3% | COc1ccccc1N1CCN(Cc2csc(NC(C)=O)n2)CC1 [Compound Z46164581] |
| 4% | CCN(C(=O)CN1CCN(Cc2ccc3c(c2)OCO3)CC1)c1c(N)n(Cc2ccccc2)c(=O)[nH]c1=O [Compound Z46204583] |
| -6% | CCN(CC(=O)N1N=C(c2ccc(OC)cc2)CC1c1ccco1)Cc1nc2ccccc2c(=O)[nH]1 (stereo not drawn) [Compound Z46301463] |
| -9% | Cc1ccc(C)c(S(=O)(=O)CCN(C)Cc2nc3ccccc3c(=O)[nH]2)c1 [Compound Z46302631] |
| 3% | COc1cccc(NC(=O)CN(C)CC(=O)Nc2cc(Cl)ccc2C#N)c1 [Compound Z46385937] |
| 5% | CCOC(=O)c1c(-c2ccc(F)cc2)csc1NC(=O)CN1CCN(Cc2cc(OC)ccc2OC)CC1 [Compound Z46402002] |
| 2% | CCOC(=O)c1c(-c2ccc(OC)c(OC)c2)csc1NC(=O)CN1CCN(C(=O)c2ccccc2)CC1 [Compound Z46404770] |
| 27% | CN(C)c1ccc(/C=c2/s/c(=C(/C#N)C(=O)NCCN3CCOCC3)n(Cc3ccco3)c2=O)cc1 [Compound Z48025165] |
| 31% | Cc1ccc(Cn2c(=O)/c(=C/c3ccc(N4CCOCC4)c([N+](=O)[O-])c3)s/c2=C/C(=O)C(C)(C)C)cc1 [Compound Z48770507] |
| 10% | Cc1ccc(CNc2nc(-c3ccc(O)c(C(N)=O)c3)cs2)cc1 [Compound Z48851233] |
| -4% | Cl.Fc1ccc(-c2cc(-c3ccccc3)c3cc(Cl)ccc3n2)cc1 [Compound Z48950786] |
| 36% | Cl.Clc1ccc(-c2cc(-c3ccccc3)c3cc(Cl)ccc3n2)cc1 [Compound Z48950819] |
| 58% | Cl.N#Cc1ccc(-c2cc(-c3ccccc3)c3cc(Cl)ccc3n2)cc1 [Compound Z48950825] |
| -11% | Cc1ccc(O)c(-c2cc(-c3ccccc3)c3cc(Cl)ccc3n2)c1.Cl [Compound Z48950854] |
| 3% | Cl.Oc1ccccc1-c1cc(-c2ccccc2)c2cc(Cl)ccc2n1 [Compound Z48950876] |
| 5% | Cl.Fc1ccccc1-c1cc(-c2ccccc2)c2ccccc2n1 [Compound Z48951009] |
| -6% | COc1cccc(-c2cc(-c3ccccc3)c3ccccc3n2)c1.Cl [Compound Z48951025] |
| 5% | Brc1ccc(-c2cc(-c3ccccc3)c3ccccc3n2)cc1.Cl [Compound Z48951036] |
| 3% | COc1ccccc1-c1cc(-c2ccccc2)c2ccccc2n1.Cl [Compound Z48951051] |
| 4% | Cl.Fc1cccc(F)c1-c1cc(-c2ccccc2)c2ccccc2n1 [Compound Z48951059] |
| -2% | Cc1c(-c2ccccc2)nc2ccc(Cl)cc2c1-c1ccccc1Cl.Cl [Compound Z48951725] |
| 40% | Cc1c(-c2ccc(O)cc2)nc2ccc(Cl)cc2c1-c1ccccc1Cl.Cl [Compound Z48951741] |

Same assay, conditions: second screening, dissolved from fresh powder; n = 4; 10 μmol L−1 compound

| SMILES | Second screening IR (inhibition rate) |
| --- | --- |
| NC(=O)c1cc(-c2csc(NCc3ccccc3)n2)ccc1O [Compound Z48850058] | 28% |
| Cc1ccc(-c2cc(-c3ccccc3)c3cc(Cl)ccc3n2)cc1.Cl [Compound Z48950811] | -7% |
| Cl.Oc1ccc(-c2cc(-c3ccccc3)c3cc(Cl)ccc3n2)cc1 [Compound Z48950817] | -2% |
| Cc1c(-c2ccc(O)cc2)nc2ccc(Cl)cc2c1-c1ccccc1.Cl [Compound Z48950829] | 14% |

Second part, the molecule after the results:

| Second screening IR (inhibition rate) | SMILES |
| --- | --- |
| -4% | CN(C)c1ccc(/C=c2/s/c(=C(/C#N)C(=O)NCCN3CCOCC3)n(Cc3ccco3)c2=O)cc1 [Compound Z48025165] |
| -13% | Cl.Clc1ccc(-c2cc(-c3ccccc3)c3cc(Cl)ccc3n2)cc1 [Compound Z48950819] |
